Assay results: the supplement of paper PMC6045584
± gives the standard deviation of the averaged measurements.

Compound: CN(Cc1cnc2nc(N)nc(N)c2n1)c1ccc(C(=O)N[C@@H](CCC(=O)O)C(=O)O)cc1 [METHOTREXATE]
Assay: surviving fraction relative to DMSO-only wells; higher = less growth inhibition
Settings: 0.5 nM; exposure time: 5 days
How it was run: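 Tumour cell lines in log phase were plated in 384-well plates at 250–500 cells per well, then, after 24 hours, exposed continuously for five days to inhibitors at 0.5, 1, 5, 10, 50, 100, 500 and 1000 nM. Viability came from CellTiter-Glo luminescence, and surviving fraction is that signal normalised to the median of DMSO-only wells. Plates were read after 10 minutes at room temperature, and each line, screened three times, was kept only when replicate Pearson r was >0.7 and median Z' was >0.3.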

| Test System | surviving fraction |
| --- | --- |
| HU09 BONE | 1.07 ± 0.17 |
| JIMT1 BREAST | 1.02 ± 0.053 |
| JURKAT HAEMATOPOIETIC AND LYMPHOID TISSUE | 1.02 ± 0.012 |
| KPD BONE | 1.06 ± 0.061 |
| LM7 BONE | 1.061 ± 0.0066 |
| MCF7 BREAST | 0.973 ± 0.011 |
| MDAMB134 BREAST | 0.929 ± 0.039 |
| MDAMB157 BREAST | 1.02 ± 0.12 |
| MDAMB231 BREAST | 0.982 ± 0.023 |
| MDAMB361 BREAST | 0.85 ± 0.13 |
| MDAMB436 BREAST | 0.955 ± 0.13 |
| MDAMB453 BREAST | 1.04 ± 0.088 |
| MDAMB468 BREAST | 1.12 ± 0.046 |
| MFM223 BREAST | 1.18 ± 0.11 |
| MG63 BONE | 1.05 ± 0.051 |
| MHM BONE | 1.02 ± 0.036 |
| NCIH441 LUNG | 1.15 ± 0.12 |
| NOS1 BONE | 1.07 ± 0.13 |
| NY BONE | 0.978 ± 0.015 |
| OS25HAL BONE | 0.998 ± 0.041 |
| OSHN BONE | 1.12 ± 0.015 |

| Test System | surviving fraction |
| --- | --- |
| PCI30 HEADNECK | 0.988 ± 0.075 |
| RDES SOFT TISSUE | 1.2 ± 0.1 |
| S68 BREAST | 0.882 ± 0.3 |
| SAOS2 BONE | 1.2 ± 0.051 |
| SCC36 HEADNECK | 1.1 ± 0.11 |
| SCC47 HEADNECK | 1.11 ± 0.097 |
| SCC90 HEADNECK | 1.07 ± 0.075 |
| SG27 HEADNECK | 1.1 ± 0.043 |
| SG28 HEADNECK | 1.06 ± 0.059 |
| SG31 HEADNECK | 1.14 ± 0.19 |
| SG32 HEADNECK | 0.946 ± 0.11 |
| SG43 HEADNECK | 0.924 ± 0.046 |
| SIHA CERVIX | 1.05 ± 0.02 |
| SJSA1 BONE | 1.62 ± 0.029 |
| SKBR3 BREAST | 1.02 ± 0.024 |
| SNU475 LIVER | 1.04 ± 0.056 |
| SUM44 BREAST | 1.31 ± 0.48 |
| SUM149 BREAST | 1.05 ± 0.075 |
| SUM149.B1*.S BREAST | 1.09 ± 0.065 |
| SUM159 BREAST | 1.1 ± 0.027 |

Same assay, conditions: 1 nM; exposure time: 5 days

| Test System | surviving fraction |
| --- | --- |
| HU09 BONE | 1 ± 0.055 |
| JIMT1 BREAST | 0.999 ± 0.026 |
| JURKAT HAEMATOPOIETIC AND LYMPHOID TISSUE | 1.02 ± 0.035 |
| KPD BONE | 1.02 ± 0.043 |
| LM7 BONE | 0.974 ± 0.085 |
| MCF7 BREAST | 0.989 ± 0.05 |
| MDAMB134 BREAST | 0.947 ± 0.04 |
| MDAMB157 BREAST | 0.908 ± 0.012 |
| MDAMB231 BREAST | 0.967 ± 0.02 |
| MDAMB361 BREAST | 0.853 ± 0.073 |
| MDAMB436 BREAST | 0.977 ± 0.091 |
| MDAMB453 BREAST | 1.06 ± 0.025 |
| MDAMB468 BREAST | 1.09 ± 0.072 |
| MFM223 BREAST | 1.3 ± 0.3 |
| MG63 BONE | 1.07 ± 0.047 |
| MHM BONE | 1.04 ± 0.044 |
| NCIH441 LUNG | 1.14 ± 0.099 |
| NOS1 BONE | 1.05 ± 0.12 |
| NY BONE | 0.993 ± 0.013 |
| OS25HAL BONE | 1.01 ± 0.035 |
| OSHN BONE | 1.077 ± 0.0067 |

| Test System | surviving fraction |
| --- | --- |
| PCI30 HEADNECK | 1.02 ± 0.062 |
| RDES SOFT TISSUE | 1.26 ± 0.021 |
| S68 BREAST | 0.879 ± 0.25 |
| SAOS2 BONE | 1.18 ± 0.037 |
| SCC36 HEADNECK | 1.1 ± 0.042 |
| SCC47 HEADNECK | 1.15 ± 0.098 |
| SCC90 HEADNECK | 1.05 ± 0.11 |
| SG27 HEADNECK | 1.15 ± 0.15 |
| SG28 HEADNECK | 1.06 ± 0.02 |
| SG31 HEADNECK | 1.21 ± 0.037 |
| SG32 HEADNECK | 1.5 ± 0.84 |
| SG43 HEADNECK | 1.01 ± 0.21 |
| SIHA CERVIX | 1.14 ± 0.048 |
| SJSA1 BONE | 1.63 ± 0.05 |
| SKBR3 BREAST | 1.11 ± 0.027 |
| SNU475 LIVER | 1.05 ± 0.05 |
| SUM44 BREAST | 1.29 ± 0.48 |
| SUM149 BREAST | 1.13 ± 0.12 |
| SUM149.B1*.S BREAST | 1.12 ± 0.042 |
| SUM159 BREAST | 1.09 ± 0.036 |

Same assay, conditions: 5 nM; exposure time: 5 days

| Test System | surviving fraction |
| --- | --- |
| HU09 BONE | 1.15 ± 0.085 |
| JIMT1 BREAST | 0.579 ± 0.035 |
| JURKAT HAEMATOPOIETIC AND LYMPHOID TISSUE | 1.02 ± 0.03 |
| KPD BONE | 1.12 ± 0.035 |
| LM7 BONE | 1.13 ± 0.015 |
| MCF7 BREAST | 0.734 ± 0.048 |
| MDAMB134 BREAST | 0.899 ± 0.052 |
| MDAMB157 BREAST | 1.05 ± 0.023 |
| MDAMB231 BREAST | 0.988 ± 0.026 |
| MDAMB361 BREAST | 0.8 ± 0.015 |
| MDAMB436 BREAST | 0.963 ± 0.12 |
| MDAMB453 BREAST | 1.12 ± 0.068 |
| MDAMB468 BREAST | 1.11 ± 0.042 |
| MFM223 BREAST | 1.35 ± 0.41 |
| MG63 BONE | 1.11 ± 0.042 |
| MHM BONE | 1.05 ± 0.078 |
| NCIH441 LUNG | 1.12 ± 0.023 |
| NOS1 BONE | 1.16 ± 0.08 |
| NY BONE | 1.07 ± 0.068 |
| OS25HAL BONE | 1.05 ± 0.029 |
| OSHN BONE | 0.197 ± 0.0074 |

| Test System | surviving fraction |
| --- | --- |
| PCI30 HEADNECK | 1.11 ± 0.037 |
| RDES SOFT TISSUE | 0.831 ± 0.19 |
| S68 BREAST | 1.1 ± 0.15 |
| SAOS2 BONE | 1.25 ± 0.05 |
| SCC36 HEADNECK | 1.15 ± 0.076 |
| SCC47 HEADNECK | 1.06 ± 0.019 |
| SCC90 HEADNECK | 1.07 ± 0.066 |
| SG27 HEADNECK | 1.09 ± 0.13 |
| SG28 HEADNECK | 1.07 ± 0.09 |
| SG31 HEADNECK | 1.07 ± 0.1 |
| SG32 HEADNECK | 1.19 ± 0.16 |
| SG43 HEADNECK | 0.917 ± 0.18 |
| SIHA CERVIX | 1.07 ± 0.085 |
| SJSA1 BONE | 1.61 ± 0.075 |
| SKBR3 BREAST | 1.11 ± 0.1 |
| SNU475 LIVER | 1.05 ± 0.018 |
| SUM44 BREAST | 1.23 ± 0.36 |
| SUM149 BREAST | 1.1 ± 0.087 |
| SUM149.B1*.S BREAST | 1.06 ± 0.036 |
| SUM159 BREAST | 1.1 ± 0.049 |

Same assay, conditions: 10 nM; exposure time: 5 days

| Test System | surviving fraction |
| --- | --- |
| HU09 BONE | 1.06 ± 0.059 |
| JIMT1 BREAST | 0.533 ± 0.044 |
| JURKAT HAEMATOPOIETIC AND LYMPHOID TISSUE | 0.404 ± 0.012 |
| KPD BONE | 1.09 ± 0.076 |
| LM7 BONE | 1.17 ± 0.06 |
| MCF7 BREAST | 0.587 ± 0.033 |
| MDAMB134 BREAST | 0.848 ± 0.027 |
| MDAMB157 BREAST | 1.02 ± 0.09 |
| MDAMB231 BREAST | 0.986 ± 0.026 |
| MDAMB361 BREAST | 0.889 ± 0.062 |
| MDAMB436 BREAST | 0.857 ± 0.024 |
| MDAMB453 BREAST | 1.04 ± 0.038 |
| MDAMB468 BREAST | 1.12 ± 0.025 |
| MFM223 BREAST | 1.41 ± 0.43 |
| MG63 BONE | 1.1 ± 0.052 |
| MHM BONE | 1.06 ± 0.038 |
| NCIH441 LUNG | 1.11 ± 0.062 |
| NOS1 BONE | 1.15 ± 0.041 |
| NY BONE | 0.97 ± 0.037 |
| OS25HAL BONE | 0.786 ± 0.031 |
| OSHN BONE | 0.201 ± 0.0096 |

| Test System | surviving fraction |
| --- | --- |
| PCI30 HEADNECK | 1.09 ± 0.075 |
| RDES SOFT TISSUE | 0.295 ± 0.015 |
| S68 BREAST | 1.21 ± 0.29 |
| SAOS2 BONE | 1.25 ± 0.023 |
| SCC36 HEADNECK | 1.16 ± 0.14 |
| SCC47 HEADNECK | 0.946 ± 0.15 |
| SCC90 HEADNECK | 1.09 ± 0.098 |
| SG27 HEADNECK | 0.944 ± 0.15 |
| SG28 HEADNECK | 1.14 ± 0.088 |
| SG31 HEADNECK | 1.31 ± 0.22 |
| SG32 HEADNECK | 1.25 ± 0.34 |
| SG43 HEADNECK | 0.915 ± 0.16 |
| SIHA CERVIX | 1.1 ± 0.017 |
| SJSA1 BONE | 1.67 ± 0.14 |
| SKBR3 BREAST | 1.04 ± 0.12 |
| SNU475 LIVER | 0.924 ± 0.01 |
| SUM44 BREAST | 1.23 ± 0.39 |
| SUM149 BREAST | 1.06 ± 0.036 |
| SUM149.B1*.S BREAST | 1.09 ± 0.041 |
| SUM159 BREAST | 1.09 ± 0.029 |
